Measured values from US20080009418A1, “Selective Inhibitors” (Alchemia LTD., priority 2004, published 2008).

What was measured:
Conditions in all cases: compound at 10 μM
Mouse urotensin (mUR2) = target: T1, Mouse urotensin (mUR2) (Mus musculus, UniProt Q8VIH9); experiment: Radioligand binding, mouse urotensin mUR2 membranes, FlashPlate, [125I]-Urotensin II
T1 construct: purchased Perkin Elmer Biosignal
T1 sequence (Q8VIH9 1-385): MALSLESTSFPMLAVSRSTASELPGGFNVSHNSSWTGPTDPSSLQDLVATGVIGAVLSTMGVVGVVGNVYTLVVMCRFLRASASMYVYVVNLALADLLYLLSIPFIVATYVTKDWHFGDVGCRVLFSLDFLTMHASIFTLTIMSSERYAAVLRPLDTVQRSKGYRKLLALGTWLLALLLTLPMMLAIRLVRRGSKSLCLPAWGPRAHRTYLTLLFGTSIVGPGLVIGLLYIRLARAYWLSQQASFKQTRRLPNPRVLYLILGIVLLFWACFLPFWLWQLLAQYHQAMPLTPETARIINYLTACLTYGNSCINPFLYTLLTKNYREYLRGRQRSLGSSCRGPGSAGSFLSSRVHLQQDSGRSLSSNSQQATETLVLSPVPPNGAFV
Method in brief: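 Cloned mouse urotensin (mUR2) receptor membranes from Perkin Elmer Biosignal were immobilized in FlashPlate microplates using a proprietary coating. Each well got 19.5 μl buffer, then 0.5 μl of DMSO, reference ligand, or compound. Adding 5 μl of [125I]-Urotensin II, diluted to 5× final concentration in binding buffer, started binding. Plates were sealed with TopSeal-A and incubated 1 hour at room temperature in the dark. Wells were counted for 30 seconds each on a TopCount after a 60-second delay, and percentage inhibition was calculated.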

Human κ-Opioid (KOP) = target: T2, Human κ-Opioid (KOP) (Homo sapiens, UniProt P41145); experiment: Radioligand binding, human κ-opioid (KOP) membranes, filtration, [3H]-Diprenorphine
T2 construct: purchased Perkin Elmer Biosignal
Method in brief: (§1)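 Membranes from cloned human receptors were incubated with compound and radioligand for 1 hour at room temperature. Bound ligand was collected on 0.3% PEI-soaked filters, washed with cold 50 mM Tris-HCl pH 7.4, and counted by scintillation. Percent inhibition was computed against DMSO totals and reference-ligand nonspecific wells.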

[1] = target: T3, Human melanin-concentrating hormone (MCH1) (Homo sapiens, UniProt Q99705); experiment: Radioligand binding, human melanin-concentrating hormone MCH1 membranes, FlashPlate, [125I]-S36057
T3 construct: purchased Perkin Elmer Biosignal
Method in brief: (§2)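 Cloned human receptor membranes were coated onto FlashPlate wells and incubated with radioligand and compound (added from a 0.5 mM DMSO daughter plate) for 1 hour at room temperature in the dark. Scintillation counting gave percent inhibition, with DMSO defining total and reference ligand defining non-specific binding.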

Human Melanocortin (MC3) = target: T4, Human Melanocortin (MC3) (Homo sapiens, UniProt P41968); experiment: Radioligand binding, human melanocortin MC3 membranes, FlashPlate, [125I]-NDP-αMSH
T4 construct: purchased Perkin Elmer Biosignal
Method in brief: as §2

Human melanocortin (MC5) = target: T5, Human melanocortin (MC5) (Homo sapiens, UniProt P33032); experiment: Radioligand binding, human melanocortin MC5 membranes, FlashPlate, [125I]-NDP-αMSH
T5 construct: purchased Perkin Elmer Biosignal
Method in brief: as §2

Human Melanocortin (MC4) = target: T6, Human Melanocortin (MC4) (Homo sapiens, UniProt P32245); experiment: Radioligand binding, human melanocortin MC4 membranes, FlashPlate, [125I]-NDP-αMSH
T6 construct: purchased Perkin Elmer Biosignal
Method in brief: as §2

Human μ-opioid (MOP) = target: T7, Human μ-opioid (MOP) (Homo sapiens, UniProt P35372); experiment: Radioligand binding, human μ-opioid (MOP) membranes, FlashPlate, [3H]-Naloxone
T7 construct: purchased Perkin Elmer Biosignal
Method in brief: as §2

[2] = target: T8, Human neuropeptide Y (NPY-Y1) (Homo sapiens, UniProt P25929); experiment: Radioligand binding, human neuropeptide Y NPY-Y1 membranes, FlashPlate, [125I]-PYY
T8 construct: purchased Perkin Elmer Biosignal
T8 sequence (P25929 1-384): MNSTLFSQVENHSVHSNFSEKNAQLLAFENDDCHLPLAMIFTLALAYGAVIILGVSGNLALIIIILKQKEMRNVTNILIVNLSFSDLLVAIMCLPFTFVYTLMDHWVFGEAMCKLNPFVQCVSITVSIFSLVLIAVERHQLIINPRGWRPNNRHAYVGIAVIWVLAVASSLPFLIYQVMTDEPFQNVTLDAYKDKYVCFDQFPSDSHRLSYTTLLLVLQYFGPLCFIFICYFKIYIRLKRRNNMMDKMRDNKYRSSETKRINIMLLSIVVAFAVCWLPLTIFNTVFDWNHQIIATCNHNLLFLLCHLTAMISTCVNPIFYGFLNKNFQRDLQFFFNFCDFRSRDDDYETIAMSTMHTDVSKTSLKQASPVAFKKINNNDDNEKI
Method in brief: as §2

Human neurokinin (NK1) = target: T9, Human neurokinin (NK1) (Homo sapiens, UniProt P25103); experiment: Radioligand binding, human neurokinin NK1 membranes, filtration, [125I]-Substance P
T9 construct: purchased Perkin Elmer Biosignal
Method in brief: as §1

Human opioid (ORL1) = target: T10, Human opioid (ORL1) (Homo sapiens, UniProt P41146); experiment: Radioligand binding, human opioid ORL1 membranes, FlashPlate, [125I]-Nociceptin
T10 construct: purchased Perkin Elmer Biosignal
Method in brief: as §2

Human δ-opioid (DOP) = target: T11, Human δ-opioid (DOP) (Homo sapiens, UniProt P41143); experiment: Radioligand binding, human δ-opioid (DOP) membranes, FlashPlate, [3H]-Bremazocine
T11 construct: purchased Perkin Elmer Biosignal
Method in brief: as §2

T10 sequence (P41146 whole entry): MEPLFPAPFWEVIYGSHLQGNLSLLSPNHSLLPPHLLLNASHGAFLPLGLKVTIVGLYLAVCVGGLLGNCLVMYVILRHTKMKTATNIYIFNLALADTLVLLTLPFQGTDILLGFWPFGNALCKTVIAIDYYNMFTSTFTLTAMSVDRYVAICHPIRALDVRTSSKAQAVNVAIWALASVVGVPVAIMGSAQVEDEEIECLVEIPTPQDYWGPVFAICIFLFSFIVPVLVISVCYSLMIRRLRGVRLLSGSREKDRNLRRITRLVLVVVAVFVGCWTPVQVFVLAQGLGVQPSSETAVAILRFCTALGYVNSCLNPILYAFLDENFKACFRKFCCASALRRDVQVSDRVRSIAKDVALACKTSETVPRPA
T3 sequence (Q99705 whole entry): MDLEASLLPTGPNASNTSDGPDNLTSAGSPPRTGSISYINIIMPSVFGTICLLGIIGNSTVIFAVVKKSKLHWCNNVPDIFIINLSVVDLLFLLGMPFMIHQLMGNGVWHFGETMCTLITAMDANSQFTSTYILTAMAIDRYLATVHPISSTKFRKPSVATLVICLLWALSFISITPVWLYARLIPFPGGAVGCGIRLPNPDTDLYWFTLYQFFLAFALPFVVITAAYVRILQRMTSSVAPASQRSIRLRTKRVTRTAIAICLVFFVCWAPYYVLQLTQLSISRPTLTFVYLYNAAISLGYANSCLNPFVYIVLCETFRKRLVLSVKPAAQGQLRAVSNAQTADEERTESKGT
T9 sequence (P25103 whole entry): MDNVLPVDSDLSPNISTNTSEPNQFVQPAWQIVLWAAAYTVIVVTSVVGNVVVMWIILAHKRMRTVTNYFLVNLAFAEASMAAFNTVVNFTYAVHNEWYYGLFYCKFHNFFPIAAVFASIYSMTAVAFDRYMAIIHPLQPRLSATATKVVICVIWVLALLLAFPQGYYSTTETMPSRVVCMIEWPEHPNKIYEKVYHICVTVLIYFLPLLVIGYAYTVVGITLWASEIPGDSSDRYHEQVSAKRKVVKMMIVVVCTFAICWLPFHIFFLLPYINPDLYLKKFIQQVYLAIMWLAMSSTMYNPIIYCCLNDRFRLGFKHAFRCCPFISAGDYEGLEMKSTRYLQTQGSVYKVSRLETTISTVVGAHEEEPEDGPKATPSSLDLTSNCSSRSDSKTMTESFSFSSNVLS
T6 sequence (P32245 whole entry): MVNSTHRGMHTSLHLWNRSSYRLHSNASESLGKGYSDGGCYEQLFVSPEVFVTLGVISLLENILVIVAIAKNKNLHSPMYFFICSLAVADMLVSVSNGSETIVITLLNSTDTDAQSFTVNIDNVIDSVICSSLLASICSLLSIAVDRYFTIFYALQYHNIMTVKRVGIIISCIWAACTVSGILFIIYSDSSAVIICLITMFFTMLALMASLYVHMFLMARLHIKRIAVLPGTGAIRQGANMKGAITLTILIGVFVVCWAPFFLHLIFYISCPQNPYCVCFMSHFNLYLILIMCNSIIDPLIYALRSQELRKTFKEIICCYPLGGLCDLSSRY
T2 sequence (P41145 whole entry): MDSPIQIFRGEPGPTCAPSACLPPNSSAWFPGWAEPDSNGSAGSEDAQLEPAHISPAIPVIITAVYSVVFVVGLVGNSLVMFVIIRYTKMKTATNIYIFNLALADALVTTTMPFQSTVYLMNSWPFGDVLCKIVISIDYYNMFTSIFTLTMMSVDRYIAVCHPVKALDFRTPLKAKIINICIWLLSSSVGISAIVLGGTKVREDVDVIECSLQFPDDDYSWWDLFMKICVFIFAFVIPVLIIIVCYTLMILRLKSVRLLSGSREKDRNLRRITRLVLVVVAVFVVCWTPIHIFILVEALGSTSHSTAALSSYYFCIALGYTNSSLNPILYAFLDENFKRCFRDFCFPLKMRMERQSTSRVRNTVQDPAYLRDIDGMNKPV
T4 sequence (P41968 whole entry): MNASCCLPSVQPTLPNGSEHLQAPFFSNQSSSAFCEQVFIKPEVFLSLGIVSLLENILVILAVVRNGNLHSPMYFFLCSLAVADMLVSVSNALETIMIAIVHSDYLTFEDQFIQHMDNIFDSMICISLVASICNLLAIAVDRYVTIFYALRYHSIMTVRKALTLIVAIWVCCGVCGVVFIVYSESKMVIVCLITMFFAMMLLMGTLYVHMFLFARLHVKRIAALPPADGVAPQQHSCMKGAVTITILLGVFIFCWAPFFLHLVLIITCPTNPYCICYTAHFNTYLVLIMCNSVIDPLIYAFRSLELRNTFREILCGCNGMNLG
T11 sequence (P41143 whole entry): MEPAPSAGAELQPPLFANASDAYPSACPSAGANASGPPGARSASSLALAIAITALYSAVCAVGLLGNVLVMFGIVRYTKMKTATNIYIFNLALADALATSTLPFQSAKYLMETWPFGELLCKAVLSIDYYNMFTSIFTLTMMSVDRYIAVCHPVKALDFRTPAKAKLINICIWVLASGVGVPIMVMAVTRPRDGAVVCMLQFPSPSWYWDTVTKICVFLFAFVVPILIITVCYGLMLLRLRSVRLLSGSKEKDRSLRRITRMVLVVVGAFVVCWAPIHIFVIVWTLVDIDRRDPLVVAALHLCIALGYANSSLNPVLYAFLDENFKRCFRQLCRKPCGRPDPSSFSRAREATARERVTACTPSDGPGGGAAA
T5 sequence (P33032 whole entry): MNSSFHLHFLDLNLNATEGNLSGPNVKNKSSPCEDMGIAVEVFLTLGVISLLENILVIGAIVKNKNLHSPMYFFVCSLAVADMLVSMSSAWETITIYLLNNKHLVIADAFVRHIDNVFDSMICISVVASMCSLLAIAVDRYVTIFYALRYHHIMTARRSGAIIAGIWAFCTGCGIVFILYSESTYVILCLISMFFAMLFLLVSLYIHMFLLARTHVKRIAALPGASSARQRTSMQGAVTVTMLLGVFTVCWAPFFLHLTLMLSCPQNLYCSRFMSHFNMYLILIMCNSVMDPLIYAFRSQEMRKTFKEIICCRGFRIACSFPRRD
T7 sequence (P35372 whole entry): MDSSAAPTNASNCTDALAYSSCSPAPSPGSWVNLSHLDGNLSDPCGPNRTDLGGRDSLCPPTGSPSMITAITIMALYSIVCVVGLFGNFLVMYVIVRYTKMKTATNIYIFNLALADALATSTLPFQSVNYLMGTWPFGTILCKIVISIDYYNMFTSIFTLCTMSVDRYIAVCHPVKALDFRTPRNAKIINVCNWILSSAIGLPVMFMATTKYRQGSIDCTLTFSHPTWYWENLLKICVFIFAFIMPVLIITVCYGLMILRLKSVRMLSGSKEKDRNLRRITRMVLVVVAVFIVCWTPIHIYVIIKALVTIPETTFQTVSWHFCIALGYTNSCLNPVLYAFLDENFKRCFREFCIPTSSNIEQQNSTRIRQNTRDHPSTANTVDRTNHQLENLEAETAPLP

COC[C@H]1OC(OCc2ccc3ccccc3c2)[C@H](NC(=O)CNC(=N)N)[C@@H](OCc2ccc(-c3ccccc3)cc2)[C@@H]1O (stereo partly drawn) [compound 15]
A11 radioligand binding inhibition (Mouse urotensin (mUR2); mouse urotensin mUR2 membranes): − (“−” indicates less than 50% inhibition at 10 μM) | A2 radioligand binding inhibition (Human κ-Opioid (KOP); human κ-opioid (KOP) membranes): − (“−” indicates less than 50% inhibition at 10 μM) | A6 radioligand binding inhibition ([1]; human MCH1 membranes): + (“+” indicates greater than 50% inhibition at 10 μM) | A3 radioligand binding inhibition (Human Melanocortin (MC3); human melanocortin MC3 membranes): − (“−” indicates less than 50% inhibition at 10 μM) | A5 radioligand binding inhibition (Human melanocortin (MC5); human melanocortin MC5 membranes): + (“+” indicates greater than 50% inhibition at 10 μM) | A4 radioligand binding inhibition (Human Melanocortin (MC4); human melanocortin MC4 membranes): + (“+” indicates greater than 50% inhibition at 10 μM) | A7 radioligand binding inhibition (Human μ-opioid (MOP); human μ-opioid (MOP) membranes): + (“+” indicates greater than 50% inhibition at 10 μM) | A9 radioligand binding inhibition ([2]; human NPY-Y1 membranes): − (“−” indicates less than 50% inhibition at 10 μM) | A8 radioligand binding inhibition (Human neurokinin (NK1); human neurokinin NK1 membranes): − (“−” indicates less than 50% inhibition at 10 μM) | A10 radioligand binding inhibition (Human opioid (ORL1); human ORL1 membranes): − (“−” indicates less than 50% inhibition at 10 μM) | A1 radioligand binding inhibition (Human δ-opioid (DOP); human δ-opioid (DOP) membranes): − (“−” indicates less than 50% inhibition at 10 μM)

NCCC(=O)N[C@H]1C(OCc2ccc3ccccc3c2)O[C@H](COCc2ccc3ccccc3c2)[C@@H](O)[C@@H]1OCc1ccc2ccccc2c1 (stereo partly drawn) [compound 442]
A11: inhibition of radioligand binding (Mouse urotensin (mUR2); [125I]-Urotensin II, mouse mUR2 membranes): − (“−” indicates less than 50% inhibition at 10 μM) | A2: inhibition of radioligand binding (Human κ-Opioid (KOP); [3H]-Diprenorphine, human KOP membranes): − (“−” indicates less than 50% inhibition at 10 μM) | A6: inhibition of radioligand binding ([1]; [125I]-S36057, human MCH1 membranes): + (“+” indicates greater than 50% inhibition at 10 μM) | A3: inhibition of radioligand binding (Human Melanocortin (MC3); [125I]-NDP-αMSH, human MC3 membranes): + (“+” indicates greater than 50% inhibition at 10 μM) | A5: inhibition of radioligand binding (Human melanocortin (MC5); [125I]-NDP-αMSH, human MC5 membranes): + (“+” indicates greater than 50% inhibition at 10 μM) | A4: inhibition of radioligand binding (Human Melanocortin (MC4); [125I]-NDP-αMSH, human MC4 membranes): + (“+” indicates greater than 50% inhibition at 10 μM) | A7: inhibition of radioligand binding (Human μ-opioid (MOP); [3H]-Naloxone, human MOP membranes): − (“−” indicates less than 50% inhibition at 10 μM) | A9: inhibition of radioligand binding ([2]; [125I]-PYY, human NPY-Y1 membranes): − (“−” indicates less than 50% inhibition at 10 μM) | A8: inhibition of radioligand binding (Human neurokinin (NK1); [125I]-Substance P, human NK1 membranes): + (“+” indicates greater than 50% inhibition at 10 μM) | A10: inhibition of radioligand binding (Human opioid (ORL1); [125I]-Nociceptin, human ORL1 membranes): + (“+” indicates greater than 50% inhibition at 10 μM) | A1: inhibition of radioligand binding (Human δ-opioid (DOP); [3H]-Bremazocine, human DOP membranes): − (“−” indicates less than 50% inhibition at 10 μM)

N=C(N)NCCC(=O)N[C@H]1C(OCc2ccc(Cl)cc2)O[C@H](COCc2ccc3ccccc3c2)[C@@H](O)[C@@H]1OCc1ccc(Cl)cc1 (stereo partly drawn) [compound 522]
A11: inhibition of radioligand binding, mouse urotensin (mUR2) (Mouse urotensin (mUR2); [125I]-Urotensin II): − (“−” indicates less than 50% inhibition at 10 μM) | A2: inhibition of radioligand binding, human κ-opioid (KOP) (Human κ-Opioid (KOP); [3H]-Diprenorphine): + (“+” indicates greater than 50% inhibition at 10 μM) | A6: inhibition of radioligand binding, human melanin-concentrating hormone (MCH1) ([1]; [125I]-S36057): + (“+” indicates greater than 50% inhibition at 10 μM) | A3: inhibition of radioligand binding, human melanocortin (MC3) (Human Melanocortin (MC3); [125I]-NDP-αMSH): + (“+” indicates greater than 50% inhibition at 10 μM) | A5: inhibition of radioligand binding, human melanocortin (MC5) (Human melanocortin (MC5); [125I]-NDP-αMSH): + (“+” indicates greater than 50% inhibition at 10 μM) | A4: inhibition of radioligand binding, human melanocortin (MC4) (Human Melanocortin (MC4); [125I]-NDP-αMSH): + (“+” indicates greater than 50% inhibition at 10 μM) | A7: inhibition of radioligand binding, human μ-opioid (MOP) (Human μ-opioid (MOP); [3H]-Naloxone, 10 µM): − (“−” indicates less than 50% inhibition at 10 μM) | A9: inhibition of radioligand binding, human neuropeptide Y (NPY-Y1) ([2]; [125I]-PYY, 10 µM): + (“+” indicates greater than 50% inhibition at 10 μM) | A8: inhibition of radioligand binding, human neurokinin (NK1) (Human neurokinin (NK1); [125I]-Substance P): + (“+” indicates greater than 50% inhibition at 10 μM) | A10: inhibition of radioligand binding, human opioid (ORL1) (Human opioid (ORL1); [125I]-Nociceptin): + (“+” indicates greater than 50% inhibition at 10 μM) | A1: inhibition of radioligand binding, human δ-opioid (DOP) (Human δ-opioid (DOP); [3H]-Bremazocine): − (“−” indicates less than 50% inhibition at 10 μM)
